Experimental data: patent publication US20160045505A1, “COMPOUNDS AND COMPOSITIONS FOR THE TREATMENT OF PARASITIC DISEASES” (NOVARTIS AG, priority 2013, published 2016)
Read-outs that look alike come from different tables or passages of the source.

What was measured:
[1] = test system: Leishmania donovani axenic amastigote parasites; test: Leishmania donovani axenic amastigote proliferation assay (Cell TiterGlo luminescence, 2 day incubation); assay type: cell-based; settings: Leishmania donovani, read-out: L. donovani amastigotes EC50
[2] = test system: Trypanosoma cruzi amastigotes (Tulahuen strain expressing Lac-Z) cultured in 3T3 fibroblast cells; test: microbe, parasite or virus in culture; assay type: cell-based; settings: Trypanosoma cruzi, TULAHUEN, Fibroblast, T. cruzi amastigotes in 3T3 fibroblast cells, read-out: T cruzi EC50
[3] = test system: L. donovani HU3 strain in mouse peritoneal macrophages; test: Assay for proliferation of Leishmania parasites in infected mouse peritoneal macrophages (SybrGreen staining, high-content imaging, 5 days); assay type: cell-based, Leishmania donovani; settings: Leishmania donovani, Peritoneal macrophage, L. donovani in mouse peritoneal macrophages, read-out: L. donovani Macrophage EC50
[4] = axenic amastigotes, inhibition of proliferation

Compound: O=C(Nc1ccc(F)c(-c2cn3cc(-c4ccc(CCN5CCOCC5)cc4)cnc3n2)c1)N1CCCC1 [Compound 352]
- EC50 [1, 4]: 0.215 µM
- EC50 ([2]; inhibition of proliferation): 0.018 µM
- EC50 ([3]; inhibition of proliferation): 0.061 µM

Compound: O=C(Nc1ccc(F)c(-c2cn3cc(C4=CCOCC4)cnc3n2)c1)N1CCCC1 [Compound 353]
- EC50 [1, 4]: 0.051 µM
- EC50 ([2]; inhibition of proliferation): 0.053 µM
- EC50 ([3]; inhibition of proliferation): 0.112 µM

Compound: O=C(Nc1ccc(F)c(-c2cn3cc(-c4ccccc4Cl)cnc3n2)c1)N1CCCC1 [Compound 357]
- EC50 [1, 4]: 0.088 µM
- EC50 ([2]; inhibition of proliferation): 0.015 µM
- EC50 ([3]; inhibition of proliferation): 0.194 µM

Compound: O=C(Nc1ccc(F)c(-c2cn3cc(-c4ccccc4)cnc3n2)c1)N1CCCC1 [Compound 358]
- EC50 [1, 4]: 0.03 µM
- EC50 ([2]; inhibition of proliferation): 0.012 µM
- EC50 ([3]; inhibition of proliferation): 0.148 µM

Compound: Cc1nc(C)c(C(=O)Nc2ccc(F)c(-c3cn4cc(C5=CCN(C)CC5)cnc4n3)c2)o1 [Compound 361]
- EC50 [1, 4]: 7.93 µM
- EC50 ([2]; inhibition of proliferation): 1.04 µM
- EC50 ([3]; inhibition of proliferation): 0.993 µM

Compound: CCn1nccc1-c1cnc2nc(-c3cc(NC(=O)c4oc(C)nc4C)ccc3F)cn2c1 [Compound 387]
- EC50 ([1]; L. donovani axenic amastigotes): 0.086 µM
- EC50 [2]: 0.149 µM
- EC50 [3]: 0.286 µM

Compound: Cc1nc(C)c(C(=O)Nc2ccc(F)c(-c3cn4cc(-c5ccccn5)cnc4n3)c2)o1 [Compound 394]
- EC50 ([1]; L. donovani axenic amastigotes): 0.08 µM
- EC50 [2]: > 20 µM
- EC50 [3]: 0.107 µM

Compound: O=C(Nc1ccc(F)c(-c2cn3cc(-c4ccccn4)cnc3n2)c1)N1CC(F)C1 [Compound 400]
- EC50 ([1]; L. donovani axenic amastigotes): 0.045 µM
- EC50 [2]: 0.199 µM
- EC50 [3]: 0.203 µM

Compound: O=C(Nc1ccc(F)c(-c2cn3cc(-c4ccccn4)cnc3n2)c1)N1CCC1 [Compound 404]
- EC50 ([1]; L. donovani axenic amastigotes): 0.011 µM
- EC50 [2]: 0.017 µM
- EC50 [3]: 0.034 µM

Compound: O=C(Nc1ccc(F)c(-c2cn3cc(C4CCOCC4)cnc3n2)c1)N1CCCC1 [Compound 419]
- EC50 ([1]; L. donovani axenic amastigotes): 0.077 µM
- EC50 [2]: 0.114 µM
- EC50 [3]: 0.182 µM

Compound: Cc1nc(C)c(C(=O)Nc2ccc(F)c(-c3cn4cc(C5CCOCC5)cnc4n3)c2)o1 [Compound 421]
- EC50 ([1]; L. donovani axenic amastigotes): 0.127 µM
- EC50 [2]: 0.17 µM
- EC50 [3]: 0.337 µM

Compound: Cc1nc(C)c(C(=O)Nc2ccc(F)c(-c3cn4cc(-c5nc(C)c(C)s5)cnc4n3)c2)o1 [Compound 457, N-(3-(6-(4,5-dimethylthiazol-2-yl)imidazo[1,2-a]pyrimidin-2-yl)-4-fluorophenyl)-2,4-dimethyloxazole-5-carboxamide]
- EC50 ([1]; L. donovani axenic amastigotes): 0.162 µM
- EC50 [2]: 0.32 µM
- EC50 [3]: 13.2 µM

Compound: COc1cccnc1-c1cnc2nc(-c3cc(NC(=O)c4oc(C)nc4C)ccc3F)cn2c1 [Compound 459]
- EC50 ([1]; L. donovani axenic amastigotes): 0.129 µM
- EC50 [2]: 0.119 µM
- EC50 [3]: 0.347 µM

Compound: Cc1nc(C)c(C(=O)Nc2ccc(F)c(-c3cn4cc(NC(C)C)cnc4n3)c2)o1 [Compound 481]
- EC50 ([1]; L. donovani axenic amastigotes): 0.209 µM
- EC50 [2]: 0.151 µM
- EC50 [3]: 0.43 µM

Compound: CC(C)OC(=O)Nc1cnc2nc(-c3cc(Nc4cccnc4)ccc3F)cn2c1 [Compound 486]
- EC50 ([1]; L. donovani axenic amastigotes): 16.1 µM
- EC50 [2]: 1.45 µM
- EC50 [3]: > 50 µM

Compound: Cc1nc(C)c(C(=O)Nc2ccc(F)c(-c3cn4cc(N5CCOCC5)cnc4n3)c2)o1 [Compound 490]
- EC50 ([1]; L. donovani axenic amastigotes): 0.134 µM
- EC50 [2]: 0.157 µM
- EC50 [3]: 0.383 µM

Compound: COCCNc1cnc2nc(-c3cc(NC(=O)N4CCCC4)ccc3Cl)cn2c1 [Compound 496]
- EC50 ([1]; L. donovani axenic amastigotes): 2.06 µM
- EC50 [2]: 2.12 µM
- EC50 [3]: 8.85 µM

Compound: Cc1nc(C)c(C(=O)Nc2ccc(F)c(-c3cn4cc(NC5=NCCN5C)cnc4n3)c2)o1 [Compound 506]
- EC50 ([1]; L. donovani axenic amastigotes): > 25 µM
- EC50 [2]: > 18.2 µM
- EC50 [3]: > 25.9 µM

Compound: Cc1nc(C)c(C(=O)Nc2ccc(Cl)c(-c3cn4cc(N5CCOC5=O)cnc4n3)c2)o1 [Compound 520, N-(4-chloro-3-(6-(2-oxooxazolidin-3-yl)imidazo[1,2-a]pyrimidin-2-yl)phenyl)-2,4-dimethyloxazole-5-carboxamide]
- EC50 ([1]; L. donovani axenic amastigotes): > 25 µM
- EC50 [2]: > 20 µM
- EC50 [3]: > 50 µM

Compound: NNC(=O)Nc1cnc2nc(-c3cc(NC(=O)N4CCCC4)ccc3F)cn2c1 [Compound 521, N-(4-fluoro-3-(6-(hydrazinecarboxamido)imidazo[1,2-a]pyrimidin-2-yl)phenyl)pyrrolidine-1-carboxamide]
- EC50 ([1]; L. donovani axenic amastigotes): 4.68 µM
- EC50 [2]: 9.23 µM
- EC50 [3]: 38.2 µM
